The record followed here is US20030069169A1, “Co-administration of melanocortin receptor agonist and phosphodiesterase inhibitor for treatment of cyclic-AMP associated disorders” (priority 2001, published 2003).

Experiment [1] deals with T1, human MC-1R (Homo sapiens, UniProt Q01726).
T1 construct: HBL cells, a human melanoma cell line licensed from Prof; G. Ghanem; endogenous in cells; host or cells: HBL human melanoma cells
Briefly: MC-1R cAMP SPA assay in HBL cells. It is filed as cell-based. As to conditions: read-out: potency as agonist of the MC-1R. The method, then:
HBL cells, a human melanoma cell line licensed from Prof. G. Ghanem (Lab. of Oncology & Exp. Surgery, Free University of Brussels, Brussels, Belgium) were used as a source of the human MC-1R. cAMP was measured using the cAMP SPA Direct Screening Assay System from Amersham (RPA 559). 20,000 HBL cells were plated into each well of a half-area 96 well white plate and were used between 16-48 hours after plating. Cells were incubated at 37° C. for 15 minutes in 25 μM IBMX to inhibit phosphodieterase activity. As per kit instructions, Assay Buffer Concentrate was diluted 1 to 50 with dH2O to prepare Assay Buffer (50 mM acetate buffer containing 0.01% sodium azide). Vials containing rabbit anti-succinyl cAMP serum and the tracer, adenosine 3′,5′-cyclic phosphoric acid 2′-0-succinyl-3-[^125I] iodotyrosine methyl ester, were resuspended with 7.5 ml Assay Buffer. SPA anti-rabbit reagent (donkey anti-rabbit IgG coupled to SPA PVT beads) was resuspended with 15 ml Assay Buffer. All reagents were stored at 4° C. after reconstitution. Melanocortin ligands or compounds were prepared in DMSO and added to the IBMX-treated cells as 100×concentrated stocks. […] Plates were subsequently counted for 6 minutes per sample in a TopCount scintillation reader with background subtraction. Data was analyzed in relation to a cAMP standard curve.

Experiment [2] concerns LPS-induced TNF-α production. Briefly: endotoxin-induced TNF-α accumulation model in Balb/C mice. Type of experiment: in vivo. As to conditions: for % Inhibition of LPS-induced TNF-α levels: balb/C mice, rolipram 10 ug/kg, NDP-MSH 2.5 mg/kg, alone or combined, co-administered with LPS by tail vein injection. The procedure: Melanocortin receptor agonists and cAMP-PDE inhibitors were evaluated for anti-inflammatory activity in vivo by using an endotoxin-induced TNF-α accumulation model in Balb/C mice. Compounds were administered either by s.c injection or co-injected with endotoxin in the tail vein. Both rolipram and melanocortin agonists inhibit endotoxin-induced TNF-α accumulation in this model.
FIG. 1 reports the results of administration of the compound of Example 11, below, in this model. Example 11 was administered by s.c. injection to five mice for each dose of 1.2 μmol/kg, 3.7 μmol/kg, 11.1 μmol/kg, 33.3 μmol/kg, and 100 μmol/kg. The compound was administered 1 hour prior to the LPS-induced challenge.
A second experiment was conducted in which the effect of the cAMP-PDE inhibitor rolipram and the melanocortin receptor agonist NDP-MSH was determined.
The four bar graphs of FIG. 2 reflect the inhibition in LPS-induced TNF-α a production in balb/C mice upon administration of (1) no agent (control); (2) 10 ug/kg ROLIPRAM (3) 2.5 mg/kg NDP-MSH and (4) 10 ug/kg ROLIPRAM in combination with 2.5 mg/kg NDP-MSH. Compounds were co-administered with LPS by tail vein injection. […] Administration of 2.5 mg/kg NDP-MSH inhibited TNF-α levels by 64%.

T1 sequence (Q01726 whole entry): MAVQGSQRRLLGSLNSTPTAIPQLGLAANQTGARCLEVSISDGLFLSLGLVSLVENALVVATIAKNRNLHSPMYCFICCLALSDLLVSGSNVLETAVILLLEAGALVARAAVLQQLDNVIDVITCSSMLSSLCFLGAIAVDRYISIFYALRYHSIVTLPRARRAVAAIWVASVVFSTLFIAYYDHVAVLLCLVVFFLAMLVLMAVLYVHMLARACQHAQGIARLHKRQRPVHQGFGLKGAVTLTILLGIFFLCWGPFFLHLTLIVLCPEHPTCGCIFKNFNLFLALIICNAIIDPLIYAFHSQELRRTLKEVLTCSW

With `CCCC(=O)C1(c2ccccc2)CCN(C(=O)[C@@H](Cc2ccc(OC)cc2)NC(=O)[C@@H](N)Cc2cncn2C)CC1` [Example 11], in experiment [1], the EC50 was approximately 20 nM.
Take NDP-MSH: the “% Inhibition of LPS-induced TNF-α levels” value in experiment [2] turned out to be 64%.
Take `COc1ccc(C2CNC(=O)C2)cc1OC1CCCC1` (stereo not shown) [Rolipram]: the “inhibition of endotoxin-induced TNF-α accumulation (in words)” value in experiment [2] (Balb/C mice, s.c. injection or co-injected with endotoxin in the tail vein) is reported as “inhibit”. Moreover, the “% Inhibition of LPS-induced TNF-α levels” value in experiment [2] is listed as 47%.
